The values below come from patent publication US20240365736A1, “COMPOSITIONS AND METHODS FOR TARGETED DEGRADATION OF PROTEINS IN A PLANT CELL” (Oerth Bio LLC, priority 2021, published 2024).

The term Kd denotes the constant that tells how readily two partners part at equilibrium.

The target in assay [1] is plant cereblon (Cereblon ligand binding domain) (Arabidopsis thaliana, UniProt F4ISN3). Briefly: Ligand binding affinity by microscale thermophoresis (Monolith), labeled Cereblon ligand binding domain. As to conditions: MST, RED-tris-NTA His-tag labeled Cereblon ligand binding domain, 25 nM labeled protein; binding to plant cereblon; read-out: Plant CRBN Kd. The procedure: The binding affinity of the described test compounds was determined using RED-tris-NTA His-tag labeled Cereblon ligand binding domain. The labeling of the Cereblon ligand binding domain was performed according to manufacturer's protocol in assay buffer (50 nM protein: 10 nM dye, 5:1 protein to dye ratio). 200 μM compound in assay buffer (10 mM HEPES pH 7.4, 300 mM NaCl, 0.1% Pluronic-147, 10% Glycerol, 5 mM DTT) was created from 10 mM compound stock in DMSO. A 16-point serial dilution was achieved by taking 10 μL of the 200 μM first well and diluting into 10 μL of assay buffer in the second well, which was diluted in 10 μL assay buffer in the third well, and so on. DMSO content of each well matched to 2%. 10 μL of 50 nM CRBN was added to each well and mixed thoroughly by pipetting. Final assay concentration of 25 nM labeled protein and highest compound concentration of 100 μM, 1% DMSO.
plant cereblon (Cereblon ligand binding domain), sequence (F4ISN3 1-547): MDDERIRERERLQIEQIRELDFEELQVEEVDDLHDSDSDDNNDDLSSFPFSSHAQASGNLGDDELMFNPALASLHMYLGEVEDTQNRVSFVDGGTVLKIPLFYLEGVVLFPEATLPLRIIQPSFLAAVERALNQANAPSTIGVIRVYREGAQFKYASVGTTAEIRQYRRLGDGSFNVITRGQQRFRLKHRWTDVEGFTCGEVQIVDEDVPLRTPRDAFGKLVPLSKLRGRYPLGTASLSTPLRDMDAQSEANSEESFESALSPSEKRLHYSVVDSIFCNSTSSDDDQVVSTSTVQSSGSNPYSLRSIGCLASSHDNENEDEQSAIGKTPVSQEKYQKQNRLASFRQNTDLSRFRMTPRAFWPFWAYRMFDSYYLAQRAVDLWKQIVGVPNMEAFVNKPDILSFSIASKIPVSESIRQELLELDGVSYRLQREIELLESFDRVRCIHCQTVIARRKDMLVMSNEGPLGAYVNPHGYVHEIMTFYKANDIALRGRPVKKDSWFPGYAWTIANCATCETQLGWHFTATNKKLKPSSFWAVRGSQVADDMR
Samples were incubated at room temperature in the dark for five minutes, then collected in standard Monolith capillaries. Assay was performed on the Monolith NT.155Pico using automated excitation level and medium power on M.O. Control software. Analysis of MST traces and determination of dissociation constants and was conducted in M.O. Affinity Analysis software, and the results are shown in Table 2 below.
Background: MST reads how a fluorescent partner responds to local heating, with and without ligand.

In assay [2] the test system is Matricaria recutita, Diplotaxis tenuifolia, Agrostis spp., Poa annua, or Arabidopsis thaliana. The assay is described as follows: Plant phenotyping assay (herbicidal phenotypes, 96-well plates). Further: key: '+++' is highly active; '++' is moderately active; '+' is weakly active; '−' is inactive. It counts as in vivo. To be noted: visual score of herbicidal phenotypes after seven days; 238, 475, 950, and 1900 g ai/ha (50-400 uM). The procedure: Seeds of Matricaria recutita, Diplotaxis tenuifolia, Agrostis spp., Poa annua, or Arabidopsis thaliana were sown into 96-well plates containing 200 μl of growth media [0.5× Murashige and Skoog (MS) basal media (Sigma-Aldrich), 2.5 mM 2-(N-morpholino) ethanesulfonic acid (MES—Sigma-Aldrich), 0.7 g/L Phytagar (Invitrogen); pH 5.7]. Three to five seeds were distributed per well. Plates were placed under fifteen hours of light at 23° C., 65% humidity in a controlled environment growth chamber. After approximately three days, test compounds and controls were mixed with acetone and emulsified with an equal volume of 3% methyl ester of rapeseed oil (Mero), and applied to plants at concentrations of 238, 475, 950, and 1900 g ai/ha (50-400 uM).

On to `COCCOCC1CCN(Cc2ccc(COc3cccc4c3CN([C@H]3CCC(=O)NC3=O)C4=O)cc2)CC1` [Example 20, (S)-3-(4-((4-((4-((2-methoxyethoxy)methyl)piperidin-1-yl)methyl)-benzyl)oxy)-1-oxoisoindolin-2-yl)piperidine-2,6-dione], for which the Kd in assay [1] fell in the range of 100 to 1000 nM.
As to `O=C1CCC(N2C(=O)c3ccccc3C2=O)C(=O)N1` (centres unmarked) [Ref 1, Thalidomide, reference compound], the dissociation constant Kd in assay [1] is over 1000 nM.
Same read-out and setting: the result for `Nc1cccc2c1C(=O)N(C1CCC(=O)NC1=O)C2=O` (centres unmarked) [Ref 2, Pomalidomide, reference compound] reads over 1000 nM; that for `COCCNC(=O)C1CCN(Cc2ccc(COc3cccc4c3CN([C@H]3CCC(=O)NC3=O)C4=O)cc2)CC1` [Example 16, (S)-1-(4-(((2-(2,6-dioxopiperidin-3-yl)-1-oxoisoindolin-4-yl)oxy)methyl)benzyl)-N-(2-methoxyethyl)piperidine-4-carboxamide], 100 to 1000 nM; that for `COCCNc1cc(COc2cccc3c2CN([C@H]2CCC(=O)NC2=O)C3=O)ccc1CN1CCOCC1` [Example 22, (3S)-3-[4-[[3-(2-methoxyethylamino)-4-(morpholinomethyl)-phenyl]methoxy]-1-oxo-isoindolin-2-yl]piperidine-2,6-dione], under 100 nM.
Turning to `COCCNC(=O)C1CCCN(Cc2ccc(COc3cccc4c3CN(C3CCC(=O)NC3=O)C4=O)cc2)C1` [Example 14, 1-(4-(((2-((S)-2,6-dioxopiperidin-3-yl)-1-oxoisoindolin-4-yl)oxy)methyl)benzyl)-N-(2-methoxyethyl)piperidine-3-carboxamide], the dissociation constant (Kd) in assay [1] fell in the range of 100 to 1000 nM.
Same read-out and setting: the same measure for `COCCNCC1COCCN1Cc1ccc(COc2cccc3c2CN([C@H]2CCC(=O)NC2=O)C3=O)cc1` (stereo partly drawn) [Example 12, (3S)-3-[4-[[4-[[3-[(2-Methoxyethylamino)methyl]morpholin-4-yl]methyl]-phenyl]methoxy]-1-oxo-isoindolin-2-yl]piperidine-2,6-dione]: 100 to 1000 nM.
Turning to `O=C1CCC(N2C(=O)c3ccc(N4CCN(CCCC5CCN(CCOCCOc6cccc(C(=O)C7C(=O)CCCC7=O)c6Cl)CC5)CC4)cc3C2=O)C(=O)N1` (centres unmarked) [Compound 2-B, 5-(4-(3-(1-(2-(2-(2-Chloro-3-(2,6-dioxocyclohexane-1-carbonyl)phenoxy)ethoxy)ethyl)piperidin-4-yl)propyl)piperazin-1-yl)-2-(2,6-dioxopiperidin-3-yl)isoindoline-1,3-dione], the “Plant Activity” value in assay [2] is “+”.
On the same count and under the same terms, the result for `CCOC(=O)[C@@H](C)Oc1ccc(Oc2ccc(OC3CCN(CCOCCOCCOCCN4CCN(c5ccc6c(c5)C(=O)N(C5CCC(=O)NC5=O)C6=O)CC4)CC3)cn2)cc1` (stereo partly drawn) [Compound 6-C, Ethyl (2R)-2-(4-((5-((1-(2-(2-(2-(2-(4-(2-(2,6-dioxopiperidin-3-yl)-1,3-dioxoisoindolin-5-yl)piperazin-1-yl)ethoxy)ethoxy)ethoxy)ethyl)piperidin-4-yl)oxy)pyridin-2-yl)oxy)phenoxy)-propanoate] reads “−”; that for `CCC(=O)C1=C(O)CC(c2ccc(OCCOCCOCCN3CCN(c4ccc5c(c4)C(=O)N(C4CCC(=O)NC4=O)C5=O)CC3)cc2)CC1=O` (centres unmarked) [Compound 5-A, 2-(2,6-Dioxopiperidin-3-yl)-5-(4-(2-(2-(2-((5′-hydroxy-3′-oxo-4′-propionyl-1′,2′,3′,6′-tetrahydro-[1,1′-biphenyl]-4-yl)oxy)ethoxy)ethoxy)ethyl)piperazin-1-yl)isoindoline-1,3-dione], “−”.
Consider `O=C1CCC(N2C(=O)c3cccc(OCCOCCOCCOc4cccc(C(=O)C5C(=O)CCCC5=O)c4Cl)c3C2=O)C(=O)N1` (centres unmarked) [Compound 1, 4-[2-[2-[2-[2-chloro-3-(2,6-dioxocyclohexanecarbonyl)phenoxy]ethoxy]ethoxy]-ethoxy]-2-(2,6-dioxo-3-piperidyl)isoindoline-1,3-dione], for which, in assay [2], the “Plant Activity” value is reported as “++”.
